# Patent publication US9695155B2, “Herbicidal substituted pyrimidinyloxy benzene compounds” (E. I. DU PONT DE NEMOURS AND COMPANY, priority 2013, dated 2017)
# How the values were obtained:
# galium = assay: Test C postemergence; type: in vivo, Galium aparine; settings: for Plant response rating (0 to 100), Galium: 0 is no effect, 100 is complete control
# In short: (§1)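 Visual injury score versus untreated controls, 0 = no effect, 100 = complete control, taken 13 to 15 days after treatment in the greenhouse. Pre-emergence pots held loam/sand; post-emergence plants grew in sphagnum peat/vermiculite mix and were sprayed at the 1- to 4-leaf stage.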
# barnyardgrass [1] = assay: Test C postemergence; type: in vivo, Echinochloa crus-galli; settings: for Plant response rating (0 to 100), Barnyardgrass: 0 is no effect, 100 is complete control
# In short: as §1
# yellow nutsedge = assay: Test C postemergence; type: in vivo, Cyperus esculentus; settings: for Plant response rating (0 to 100), Nutsedge, Yellow: 16 g ai/ha, 0 is no effect, 100 is complete control
# In short: as §1
# ragweed = assay: Test C postemergence; type: in vivo, Ambrosia elatior; settings: for Plant response rating (0 to 100), Ragweed: 16 g ai/ha, 0 is no effect, 100 is complete control
# In short: as §1
# waterhemp = assay: Test C postemergence; type: in vivo, Amaranthus rudis; settings: for Plant response rating (0 to 100), Waterhemp: 16 g ai/ha, 0 is no effect, 100 is complete control
# In short: as §1
# wild oat = assay: Test C postemergence; type: in vivo, Avena fatua; settings: for Plant response rating (0 to 100), Oat, Wild: 16 g ai/ha, 0 is no effect, 100 is complete control
# In short: as §1
# barnyardgrass [2] = assay: Test A postemergence; type: in vivo, Echinochloa crus-galli
# In short: (§2)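 Injury scores run from 0, no effect, to 100, complete control, judged by eye against untreated plants roughly 10 days after treatment. Chemicals carried a surfactant in a non-phytotoxic solvent and went onto loam–sand soil preemergence or onto one- to two-leaf seedlings postemergence.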
# wheat, winter = assay: Test C postemergence; type: in vivo, Triticum aestivum; settings: for Plant response rating (0 to 100), Wheat: 16 g ai/ha, 0 is no effect, 100 is complete control
# In short: as §1
# corn [3] = assay: Test A preemergence; type: in vivo, Zea mays
# In short: as §2
# corn [4] = assay: Test A postemergence; type: in vivo, Zea mays
# In short: as §2
# [5] = 31 g ai/ha, postemergence, visual rating, scale 0 to 100 (0 no effect, 100 complete control), 13 to 15 days
# [6] = 125 g ai/ha, postemergence, visual rating, scale 0 to 100 (0 no effect, 100 complete control)
# [7] = Postemergence, 62 g ai/ha, scale 0 to 100 (0 no effect, 100 complete control)
# [8] = 125 g ai/ha, 0 to 100 scale where 0 is no effect and 100 is complete control
# [9] = 500 g ai/ha, 0 to 100 scale where 0 is no effect and 100 is complete control
smiles,measurement,setting,value
"FC(F)c1cnn(-c2ccccc2Oc2ncc(Cl)cn2)c1 [Compound 80, 5-chloro-2-[2-[4-(difluoromethyl)-1H-pyrazol-1-yl]phenoxy]pyrimidine]",pest or weed control at 16 g/ha,"galium; Galium, post-emergence, 16 g ai/ha, postemergence, visual rating, scale 0 to 100 (0 no effect, 100 complete control), 13 to 15 days, read-out: Galium plant response rating",55%
same,pest or weed control at 125 g/ha,"galium; Galium, post-emergence, 125 g ai/ha, postemergence, read-out: Plant response rating (0 to 100), Galium",95%
same,pest or weed control at 31 g/ha,"galium; Galium, post-emergence, Postemergence, 31 g ai/ha, scale 0 to 100 (0 no effect, 100 complete control), 13 to 15 days, read-out: Plant response rating, Galium",70%
same,pest or weed control at 62 g/ha,"galium; Galium, post-emergence, Postemergence, 62 g ai/ha, scale 0 to 100 (0 no effect, 100 complete control), read-out: Plant response rating, Galium",85%
same,pest or weed control at 16 g/ha,"barnyardgrass [1]; Echinochloa crus-galli, post-emergence, 16 g ai/ha, postemergence, visual rating, scale 0 to 100 (0 no effect, 100 complete control), 13 to 15 days, read-out: Barnyardgrass plant response rating",0%
same,pest or weed control at 125 g/ha,"barnyardgrass [1]; Echinochloa crus-galli, post-emergence, 125 g ai/ha, postemergence, read-out: Plant response rating (0 to 100), Barnyardgrass",5%
same,pest or weed control at 31 g/ha,"barnyardgrass [1]; Echinochloa crus-galli, post-emergence, Postemergence, 31 g ai/ha, scale 0 to 100 (0 no effect, 100 complete control), 13 to 15 days, read-out: Plant response rating, Barnyardgrass",5%
same,pest or weed control at 62 g/ha,"barnyardgrass [1]; Echinochloa crus-galli, post-emergence, Postemergence, 62 g ai/ha, scale 0 to 100 (0 no effect, 100 complete control), read-out: Plant response rating, Barnyardgrass",5%
same,pest or weed control at 125 g/ha,"yellow nutsedge; Cyperus, post-emergence, 125 g ai/ha, postemergence, read-out: Plant response rating (0 to 100), Nutsedge, Yellow",5%
same,pest or weed control at 31 g/ha,"yellow nutsedge; Cyperus, post-emergence, Postemergence, 31 g ai/ha, scale 0 to 100 (0 no effect, 100 complete control), 13 to 15 days, read-out: Plant response rating, Nutsedge, Yellow",5%
same,pest or weed control at 62 g/ha,"yellow nutsedge; Cyperus, post-emergence, Postemergence, 62 g ai/ha, scale 0 to 100 (0 no effect, 100 complete control), read-out: Plant response rating, Nutsedge, Yellow",5%
same,pest or weed control at 125 g/ha,"ragweed; Ambrosia artemisiifolia, post-emergence, 125 g ai/ha, postemergence, read-out: Plant response rating (0 to 100), Ragweed",45%
same,pest or weed control at 31 g/ha,"ragweed; Ambrosia artemisiifolia, post-emergence, Postemergence, 31 g ai/ha, scale 0 to 100 (0 no effect, 100 complete control), 13 to 15 days, read-out: Plant response rating, Ragweed",40%
same,pest or weed control at 62 g/ha,"ragweed; Ambrosia artemisiifolia, post-emergence, Postemergence, 62 g ai/ha, scale 0 to 100 (0 no effect, 100 complete control), read-out: Plant response rating, Ragweed",40%
same,pest or weed control at 125 g/ha,"waterhemp; Amaranthus tuberculatus, post-emergence, 125 g ai/ha, postemergence, read-out: Plant response rating (0 to 100), Waterhemp",90%
same,pest or weed control at 31 g/ha,"waterhemp; Amaranthus tuberculatus, post-emergence, Postemergence, 31 g ai/ha, scale 0 to 100 (0 no effect, 100 complete control), 13 to 15 days, read-out: Plant response rating, Waterhemp",65%
same,pest or weed control at 62 g/ha,"waterhemp; Amaranthus tuberculatus, post-emergence, Postemergence, 62 g ai/ha, scale 0 to 100 (0 no effect, 100 complete control), read-out: Plant response rating, Waterhemp",70%
same,pest or weed control at 125 g/ha,"wild oat; Avena fatua, post-emergence, 125 g ai/ha, postemergence, read-out: Plant response rating (0 to 100), Oat, Wild",10%
same,pest or weed control at 31 g/ha,"wild oat; Avena fatua, post-emergence, Postemergence, 31 g ai/ha, scale 0 to 100 (0 no effect, 100 complete control), 13 to 15 days, read-out: Plant response rating, Oat, Wild",0%
same,pest or weed control at 62 g/ha,"wild oat; Avena fatua, post-emergence, Postemergence, 62 g ai/ha, scale 0 to 100 (0 no effect, 100 complete control), read-out: Plant response rating, Oat, Wild",5%
same,pest or weed control at 125 g/ha,"barnyardgrass [2]; Echinochloa crus-galli, post-emergence, 240 h, 125 g ai/ha, 0 to 100 scale where 0 is no effect and 100 is complete control, read-out: Plant response rating, Barnyardgrass",70%
same,pest or weed control at 500 g/ha,"barnyardgrass [2]; Echinochloa crus-galli, post-emergence, 240 h, 500 g ai/ha, 0 to 100 scale, 0 no effect, 100 complete control, read-out: Plant response rating Barnyardgrass",100%
same,plant injury at 125 g/ha,"wheat, winter; Triticum aestivum, post-emergence, 125 g ai/ha, postemergence, read-out: Plant response rating (0 to 100), Wheat",30%
same,plant injury at 31 g/ha,"wheat, winter; Triticum aestivum, post-emergence, Postemergence, 31 g ai/ha, scale 0 to 100 (0 no effect, 100 complete control), 13 to 15 days, read-out: Plant response rating, Wheat",0%
same,plant injury at 62 g/ha,"wheat, winter; Triticum aestivum, post-emergence, Postemergence, 62 g ai/ha, scale 0 to 100 (0 no effect, 100 complete control), read-out: Plant response rating, Wheat",5%
same,"Corn plant response rating (crop injury, 0 = no effect, 100 = complete kill) at 125 g/ha","corn [3]; Zea mays, pre-emergence, 240 h, 125 g ai/ha, 0 to 100 scale where 0 is no effect and 100 is complete control",0%
same,plant injury at 500 g/ha,"corn [3]; Zea mays, pre-emergence, 240 h, 500 g ai/ha, 0 to 100 scale, 0 no effect, 100 complete control, approx. 10 days, read-out: Corn plant response rating",40%
same,"Corn plant response rating (crop injury, 0 = no effect, 100 = complete kill) at 125 g/ha","corn [4]; Zea mays, post-emergence, 240 h, 125 g ai/ha, 0 to 100 scale where 0 is no effect and 100 is complete control",70%
same,plant injury at 500 g/ha,"corn [4]; Zea mays, post-emergence, 240 h, 500 g ai/ha, 0 to 100 scale, 0 no effect, 100 complete control, read-out: Plant response rating Corn",10%
FC(F)(F)c1cnn(-c2c(Br)cccc2Oc2ncc(Cl)cn2)c1 [Compound 191],"Plant response rating (0 to 100), Galium","galium; 16 g ai/ha, postemergence",80
same,Galium plant response rating,galium; [5],80
same,"Plant response rating, Galium",galium; [6],98
same,"Plant response rating, Galium",galium; [7],98
same,"Plant response rating (0 to 100), Barnyardgrass","barnyardgrass [1]; 16 g ai/ha, postemergence",10
same,Barnyardgrass plant response rating,barnyardgrass [1]; [5],10
same,"Plant response rating, Barnyardgrass",barnyardgrass [1]; [6],15
same,"Plant response rating, Barnyardgrass",barnyardgrass [1]; [7],15
same,"Plant response rating (0 to 100), Nutsedge, Yellow",yellow nutsedge; postemergence,0
same,"Nutsedge, Yellow plant response rating",yellow nutsedge; [5],0
same,"Plant response rating, Nutsedge, Yellow",yellow nutsedge; [6],5
same,"Plant response rating, Nutsedge, Yellow",yellow nutsedge; [7],5
same,"Plant response rating (0 to 100), Ragweed",ragweed; postemergence,5
same,Ragweed plant response rating,ragweed; [5],20
same,"Plant response rating, Ragweed",ragweed; [6],35
same,"Plant response rating, Ragweed",ragweed; [7],30
same,"Plant response rating (0 to 100), Waterhemp",waterhemp; postemergence,80
same,Waterhemp plant response rating,waterhemp; [5],85
same,"Plant response rating, Waterhemp",waterhemp; [6],95
same,"Plant response rating, Waterhemp",waterhemp; [7],95
same,"Plant response rating (0 to 100), Oat, Wild",wild oat; postemergence,5
same,"Oat, Wild plant response rating",wild oat; [5],5
same,"Plant response rating, Oat, Wild",wild oat; [6],10
same,"Plant response rating, Oat, Wild",wild oat; [7],5
same,Barnyardgrass plant response rating,barnyardgrass [2]; [8],50
same,"Plant response rating, Barnyardgrass",barnyardgrass [2]; [9],90
same,"Plant response rating (0 to 100), Wheat","wheat, winter; postemergence",0
same,Wheat plant response rating,"wheat, winter; [5]",0
same,"Plant response rating, Wheat","wheat, winter; [6]",0
same,"Plant response rating, Wheat","wheat, winter; [7]",0
same,Corn plant response rating (0 to 100 scale),corn [3]; 125 g ai/ha,0
same,Corn plant response rating,corn [3]; [9],30
same,Corn plant response rating,corn [4]; [8],20
same,"Plant response rating, Corn",corn [4]; [9],40
FC(F)c1cccc(Oc2ncc(Br)cn2)c1-n1cc(C(F)(F)F)cn1 [Compound 163],"Plant response rating (0 to 100), Galium","galium; 16 g ai/ha, postemergence",70
same,Galium plant response rating,galium; [5],50
same,"Plant response rating, Galium",galium; [6],95
same,"Plant response rating, Galium",galium; [7],85
same,"Plant response rating (0 to 100), Barnyardgrass","barnyardgrass [1]; 16 g ai/ha, postemergence",5
same,Barnyardgrass plant response rating,barnyardgrass [1]; [5],5
same,"Plant response rating, Barnyardgrass",barnyardgrass [1]; [6],5
same,"Plant response rating, Barnyardgrass",barnyardgrass [1]; [7],5
same,"Plant response rating (0 to 100), Nutsedge, Yellow",yellow nutsedge; postemergence,5
same,"Nutsedge, Yellow plant response rating",yellow nutsedge; [5],5
same,"Plant response rating, Nutsedge, Yellow",yellow nutsedge; [6],5
same,"Plant response rating, Nutsedge, Yellow",yellow nutsedge; [7],5
same,"Plant response rating (0 to 100), Ragweed",ragweed; postemergence,10
same,Ragweed plant response rating,ragweed; [5],35
same,"Plant response rating, Ragweed",ragweed; [6],60
same,"Plant response rating, Ragweed",ragweed; [7],35
same,"Plant response rating (0 to 100), Waterhemp",waterhemp; postemergence,75
same,Waterhemp plant response rating,waterhemp; [5],75
same,"Plant response rating, Waterhemp",waterhemp; [6],80
same,"Plant response rating, Waterhemp",waterhemp; [7],85
same,"Plant response rating (0 to 100), Oat, Wild",wild oat; postemergence,0
same,"Oat, Wild plant response rating",wild oat; [5],5
same,"Plant response rating, Oat, Wild",wild oat; [6],20
same,"Plant response rating, Oat, Wild",wild oat; [7],10
same,Barnyardgrass plant response rating,barnyardgrass [2]; [8],30
same,"Plant response rating, Barnyardgrass",barnyardgrass [2]; [9],100
same,"Plant response rating (0 to 100), Wheat","wheat, winter; postemergence",0
same,Wheat plant response rating,"wheat, winter; [5]",0
same,"Plant response rating, Wheat","wheat, winter; [6]",5
same,"Plant response rating, Wheat","wheat, winter; [7]",0
same,"Plant response rating, Corn",corn [3]; [8],0
same,Corn plant response rating,corn [3]; [9],10
same,Corn plant response rating,corn [4]; [8],30
same,"Plant response rating, Corn",corn [4]; [9],50
